The source made the active and inactive calls.
What was measured:
[1] = molecular target: T1, Interleukin-8 (Homo sapiens, UniProt P10145); assay: SAR analysis of GM-Tri-DAP induced IL-8 secretion in MCF-7/NOD1 cells - Set 2. [Related pubchem assays (depositor defined):AID1575, AID1578, AID2333]; type: functional, cell-based
T1 sequence (P10145 whole entry): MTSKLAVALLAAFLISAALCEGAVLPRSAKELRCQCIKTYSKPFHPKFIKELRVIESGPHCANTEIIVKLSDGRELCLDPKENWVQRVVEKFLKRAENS

[2] = molecular target: Tumor necrosis factor (Homo sapiens, UniProt P01375); assay: analog potency on TNFa NF-kB signaling – cell-based, set 3, SAR follow-up (AID 2801); type: functional
[3] = molecular target: T2, Nucleotide-binding oligomerization domain-containing protein 2 (Homo sapiens, UniProt Q9HC29); assay: inhibition of NOD2 signaling – set 2, SAR follow-up (AID 2475); type: functional
[4] = molecular target: T1, Interleukin-8; assay: SAR analysis of Tumor necrosis factor alpha (TNF-alpha) induced IL-8 secretion in MCF-7/NOD1 cells - Set 2. [Related pubchem assays (depositor defined):AID1575, AID2250, AID2260]; type: functional, cell-based
[5] = molecular target: T3, Nucleotide-binding oligomerization domain-containing protein 1 (Homo sapiens, UniProt Q9Y239); assay: SAR analysis of compounds that inhibit NOD1 - Set 3. [Related pubchem assays (depositor defined):AID1566, AID1575, AID1578, AID1849, AID1852, AID2333, AID2335, AID2466]; type: functional
T3 sequence (Q9Y239 whole entry): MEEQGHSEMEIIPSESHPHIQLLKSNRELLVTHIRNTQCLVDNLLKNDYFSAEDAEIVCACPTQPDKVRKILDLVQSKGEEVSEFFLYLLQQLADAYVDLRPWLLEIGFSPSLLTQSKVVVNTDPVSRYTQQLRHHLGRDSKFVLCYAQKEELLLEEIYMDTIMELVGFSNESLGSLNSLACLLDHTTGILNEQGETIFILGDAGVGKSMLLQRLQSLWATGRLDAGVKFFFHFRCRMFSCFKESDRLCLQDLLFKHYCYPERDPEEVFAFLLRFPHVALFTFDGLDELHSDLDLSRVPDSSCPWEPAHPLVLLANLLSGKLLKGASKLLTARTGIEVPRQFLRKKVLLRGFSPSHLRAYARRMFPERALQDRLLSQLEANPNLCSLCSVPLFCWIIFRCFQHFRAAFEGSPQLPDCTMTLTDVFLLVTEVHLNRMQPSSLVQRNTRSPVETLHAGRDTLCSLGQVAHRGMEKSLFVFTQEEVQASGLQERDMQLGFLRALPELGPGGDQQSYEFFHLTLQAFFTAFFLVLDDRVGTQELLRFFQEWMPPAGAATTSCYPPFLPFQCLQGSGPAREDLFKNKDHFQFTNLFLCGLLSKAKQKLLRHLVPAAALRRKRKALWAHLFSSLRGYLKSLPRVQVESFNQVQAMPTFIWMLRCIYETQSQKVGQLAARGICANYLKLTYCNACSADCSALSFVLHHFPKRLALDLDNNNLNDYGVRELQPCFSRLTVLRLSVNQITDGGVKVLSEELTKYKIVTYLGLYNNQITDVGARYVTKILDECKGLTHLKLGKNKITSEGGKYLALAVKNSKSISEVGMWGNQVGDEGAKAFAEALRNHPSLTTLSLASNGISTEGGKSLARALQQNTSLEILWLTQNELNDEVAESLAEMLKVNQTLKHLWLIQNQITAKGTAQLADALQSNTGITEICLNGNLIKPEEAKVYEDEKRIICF

[6] = molecular target: T2, Nucleotide-binding oligomerization domain-containing protein 2; assay: inhibition of MDP-driven NOD2 NF-kB reporter – cell-based, set 3, SAR follow-up (AID 2799); type: functional
[7] = test system: HEK293; assay: SAR analysis of compounds that are cytotoxic to HEK293 - Set 3. [Related pubchem assays (depositor defined):AID1575, AID1578, AID1848, AID1849, AID2001, AID2333, AID2334, AID2335, AID2337, AID2469]; type: functional, cell-based; conditions: Homo sapiens
[8] = test system: HEK293; assay: SAR analysis of compounds that are cytotoxic to HEK293 - Set 2. [Related pubchem assays (depositor defined):AID1575, AID1578, AID1849, AID2001, AID2333, AID2334, AID2335, AID2337, AID2800]; type: functional, cell-based; conditions: Homo sapiens
[9] = molecular target: T3, Nucleotide-binding oligomerization domain-containing protein 1; assay: SAR analysis of compounds that inhibit NOD1 - Set 2. [Related pubchem assays (depositor defined):AID1566, AID1575, AID1578, AID1849, AID1852, AID2333, AID2335, AID2798]; type: functional
[10] = molecular target: T3, Nucleotide-binding oligomerization domain-containing protein 1; assay: SAR analysis of NF-kappaB dependent luciferase using DAP as an inducer - Set 2. [Related pubchem assays (depositor defined):AID1566, AID1575, AID1578, AID1579, AID1849, AID1852, AID2264]; type: functional
[11] = molecular target: T4, Cannabinoid receptor 2 (Homo sapiens, UniProt P34972); assay: SAR analysis of antagonists of the Cannabinoid Receptor 2 using an Image-Based Assay. [Related pubchem assays (depositor defined):AID2013, AID2026]; type: functional
[12] = molecular target: T5, G-protein coupled receptor 35 (Homo sapiens, UniProt Q9HC97); assay: SAR analysis of Agonists of the GPR35 Receptor using an Image-Based Assay - Set 2. [Related pubchem assays (depositor defined):AID2013, AID2026]; type: functional
[13] = molecular target: T6, G-protein coupled receptor 55 (Homo sapiens, UniProt Q9Y2T6); assay: blockade of LPI-induced GPR55 arrestin translocation – imaging, U2OS, beta-arrestin-GFP, LPI agonist, set 2, SAR follow-up (AID 2820); type: functional
[14] = molecular target: T7, Cannabinoid receptor 1 (Homo sapiens, UniProt P21554); assay: SAR analysis of antagonists of the Cannabinoid Receptor 1 using an Image-Based Assay - Set 2. [Related pubchem assays (depositor defined):AID2013, AID2026]; type: functional
[15] = molecular target: T5, G-protein coupled receptor 35; assay: SAR analysis of Antagonists of the GPR35 Receptor using an Image-Based Assay - Set 3. [Related pubchem assays (depositor defined):AID2013, AID2026]; type: functional
[16] = molecular target: T6, G-protein coupled receptor 55; assay: inhibition of LPI-stimulated GPR55 beta-arrestin translocation – imaging, U2OS, beta-arrestin-GFP, LPI agonist, primary screen (AID 2013); type: functional;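 note: antagonist potency measured as reduced agonist-driven arrestin aggregation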
[17] = molecular target: T7, Cannabinoid receptor 1; assay: SAR analysis of agonists of the Cannabinoid Receptor 1 using an Image-Based Assay - Set 2. [Related pubchem assays (depositor defined):AID2013, AID2026]; type: functional
[18] = molecular target: T4, Cannabinoid receptor 2; assay: SAR analysis of agonists of the Cannabinoid Receptor 2 using an Image-Based Assay. [Related pubchem assays (depositor defined):AID2013, AID2026]; type: functional
[19] = molecular target: T8, Ubiquitin-conjugating enzyme E2 N (Homo sapiens, UniProt P61088); type: functional
T8 sequence (P61088 whole entry): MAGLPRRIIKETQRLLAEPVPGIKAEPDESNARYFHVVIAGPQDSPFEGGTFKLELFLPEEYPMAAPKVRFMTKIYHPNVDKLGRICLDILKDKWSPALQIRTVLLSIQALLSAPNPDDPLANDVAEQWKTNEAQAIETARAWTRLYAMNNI

[20] = molecular target: T8, Ubiquitin-conjugating enzyme E2 N; type: functional; remark: listed apart in the source
[21] = molecular target: T9, Bcl-2-related protein A1 (Mus musculus, UniProt Q07440); type: functional;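 note: confirmatory dose–response counterscreen on Bfl-1, used to check hits from a UBC13 polyubiquitin inhibitor campaign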
T9 sequence (Q07440 whole entry): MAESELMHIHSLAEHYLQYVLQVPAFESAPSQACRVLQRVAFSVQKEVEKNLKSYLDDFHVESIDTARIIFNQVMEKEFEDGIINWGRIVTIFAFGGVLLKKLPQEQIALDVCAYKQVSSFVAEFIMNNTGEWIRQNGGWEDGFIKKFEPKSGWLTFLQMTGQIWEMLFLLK

[22] = molecular target: T10, Induced myeloid leukemia cell differentiation protein Mcl-1 (Homo sapiens, UniProt Q07820); assay: blockers of MCL1 binding to BIM peptide – biochemical, fluorescence polarization, BIM-BH3 peptide, 1536-well, dose response (AID 2217)
[23] = molecular target: Bcl-2-like protein 1 (Homo sapiens, UniProt Q07817); assay: blockers of BCLXL peptide binding – biochemical, fluorescence polarization, 1536-well, selectivity assay for MCL1 inhibitor project, dose response (AID 2218)
[24] = molecular target: T10, Induced myeloid leukemia cell differentiation protein Mcl-1; type: functional
[25] = molecular target: T11, Alkaline phosphatase, tissue-nonspecific isozyme (Homo sapiens, UniProt P05186); assay: TNAP enzyme inhibition by screening hits, dose response, selectivity assay for mouse IAP inhibitor project, biochemical, human TNAP, uHTS hits (AID 488906); type: functional
T11 sequence (P05186 whole entry): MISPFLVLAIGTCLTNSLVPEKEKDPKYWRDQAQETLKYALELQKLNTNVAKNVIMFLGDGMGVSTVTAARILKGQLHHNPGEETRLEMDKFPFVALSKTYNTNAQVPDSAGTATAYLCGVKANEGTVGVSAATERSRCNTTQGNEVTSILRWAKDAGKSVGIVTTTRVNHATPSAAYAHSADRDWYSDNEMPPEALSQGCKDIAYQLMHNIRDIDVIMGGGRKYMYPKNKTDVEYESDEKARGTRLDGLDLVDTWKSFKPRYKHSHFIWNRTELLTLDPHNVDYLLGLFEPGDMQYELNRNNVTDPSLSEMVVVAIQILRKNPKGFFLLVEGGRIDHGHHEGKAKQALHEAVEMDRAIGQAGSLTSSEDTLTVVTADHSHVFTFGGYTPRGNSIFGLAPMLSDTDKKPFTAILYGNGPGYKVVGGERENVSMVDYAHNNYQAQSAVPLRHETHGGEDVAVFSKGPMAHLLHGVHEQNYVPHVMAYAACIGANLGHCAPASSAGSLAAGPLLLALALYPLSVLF

[26] = molecular target: Intestinal-type alkaline phosphatase (Mus musculus, UniProt P24822); assay: PubChem AID 488785; type: functional
[27] = cells; type: functional, cell-based
[28] = molecular target: T12, Carboxy-terminal domain RNA polymerase II polypeptide A small phosphatase 1 (Homo sapiens, UniProt Q9GZU7); assay: CTDSP1 inhibitors, concentration-response, biochemical, absorbance readout, ultra-high-throughput screen actives (AID 540297); type: functional
T12 sequence (Q9GZU7 whole entry): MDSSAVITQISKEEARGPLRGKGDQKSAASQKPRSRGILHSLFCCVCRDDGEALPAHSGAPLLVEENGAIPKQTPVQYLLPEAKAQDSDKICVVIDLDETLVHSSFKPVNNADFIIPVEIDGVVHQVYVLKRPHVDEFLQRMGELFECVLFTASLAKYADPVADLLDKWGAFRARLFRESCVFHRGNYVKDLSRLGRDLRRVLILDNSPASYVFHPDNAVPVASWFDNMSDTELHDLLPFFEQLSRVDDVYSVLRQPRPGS

[29] = molecular target: Intestinal-type alkaline phosphatase (Homo sapiens, UniProt P09923); assay: activation of human intestinal alkaline phosphatase – biochemical, dose response (AID 488873); type: functional
[30] = cells; type: functional, cell-based; remark: listed apart in the source

T5 sequence (Q9HC97 whole entry): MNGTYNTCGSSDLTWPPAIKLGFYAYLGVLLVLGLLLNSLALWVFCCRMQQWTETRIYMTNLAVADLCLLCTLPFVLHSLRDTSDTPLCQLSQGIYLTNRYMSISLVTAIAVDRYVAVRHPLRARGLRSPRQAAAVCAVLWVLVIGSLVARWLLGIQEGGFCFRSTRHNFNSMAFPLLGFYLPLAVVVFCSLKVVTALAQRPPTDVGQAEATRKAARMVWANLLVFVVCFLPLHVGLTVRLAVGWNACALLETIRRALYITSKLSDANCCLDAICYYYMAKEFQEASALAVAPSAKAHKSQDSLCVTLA
T2 sequence (Q9HC29 whole entry, the tested form may be a part): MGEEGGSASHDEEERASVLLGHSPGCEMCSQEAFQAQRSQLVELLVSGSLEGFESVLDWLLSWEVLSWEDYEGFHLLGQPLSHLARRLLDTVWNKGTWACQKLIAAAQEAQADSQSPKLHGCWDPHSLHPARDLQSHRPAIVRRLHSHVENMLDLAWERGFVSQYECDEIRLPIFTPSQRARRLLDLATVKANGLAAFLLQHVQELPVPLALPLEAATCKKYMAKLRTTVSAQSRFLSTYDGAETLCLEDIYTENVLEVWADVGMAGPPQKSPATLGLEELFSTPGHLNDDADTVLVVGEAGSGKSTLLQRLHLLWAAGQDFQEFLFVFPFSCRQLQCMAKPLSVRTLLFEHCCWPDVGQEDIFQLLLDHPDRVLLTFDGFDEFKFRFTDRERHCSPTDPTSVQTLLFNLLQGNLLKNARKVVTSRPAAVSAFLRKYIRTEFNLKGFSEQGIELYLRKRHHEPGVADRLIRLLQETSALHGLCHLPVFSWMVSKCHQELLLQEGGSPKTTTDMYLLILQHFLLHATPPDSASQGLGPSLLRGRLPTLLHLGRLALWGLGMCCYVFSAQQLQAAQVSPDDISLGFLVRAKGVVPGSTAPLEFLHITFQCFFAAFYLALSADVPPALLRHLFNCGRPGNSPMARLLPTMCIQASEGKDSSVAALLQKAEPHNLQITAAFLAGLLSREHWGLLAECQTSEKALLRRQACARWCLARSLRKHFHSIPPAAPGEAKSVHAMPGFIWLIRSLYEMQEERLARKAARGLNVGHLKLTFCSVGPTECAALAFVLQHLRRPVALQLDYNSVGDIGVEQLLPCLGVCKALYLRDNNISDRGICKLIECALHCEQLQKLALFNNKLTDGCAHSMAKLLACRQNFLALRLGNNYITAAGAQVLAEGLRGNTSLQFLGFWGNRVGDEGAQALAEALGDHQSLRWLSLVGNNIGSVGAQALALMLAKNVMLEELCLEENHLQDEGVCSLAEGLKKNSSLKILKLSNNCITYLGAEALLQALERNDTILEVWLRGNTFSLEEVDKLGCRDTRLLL
T4 sequence (P34972 whole entry): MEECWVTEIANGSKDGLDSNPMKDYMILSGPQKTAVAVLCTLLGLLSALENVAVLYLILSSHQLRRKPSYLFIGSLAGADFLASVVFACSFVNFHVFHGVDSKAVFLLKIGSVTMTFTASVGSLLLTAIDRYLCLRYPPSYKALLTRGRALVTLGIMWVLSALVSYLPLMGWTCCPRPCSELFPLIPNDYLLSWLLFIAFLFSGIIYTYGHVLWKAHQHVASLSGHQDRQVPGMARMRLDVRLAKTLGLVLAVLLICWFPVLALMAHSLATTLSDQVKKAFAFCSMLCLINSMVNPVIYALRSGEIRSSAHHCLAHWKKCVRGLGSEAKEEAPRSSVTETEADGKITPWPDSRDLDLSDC
T10 sequence (Q07820 whole entry): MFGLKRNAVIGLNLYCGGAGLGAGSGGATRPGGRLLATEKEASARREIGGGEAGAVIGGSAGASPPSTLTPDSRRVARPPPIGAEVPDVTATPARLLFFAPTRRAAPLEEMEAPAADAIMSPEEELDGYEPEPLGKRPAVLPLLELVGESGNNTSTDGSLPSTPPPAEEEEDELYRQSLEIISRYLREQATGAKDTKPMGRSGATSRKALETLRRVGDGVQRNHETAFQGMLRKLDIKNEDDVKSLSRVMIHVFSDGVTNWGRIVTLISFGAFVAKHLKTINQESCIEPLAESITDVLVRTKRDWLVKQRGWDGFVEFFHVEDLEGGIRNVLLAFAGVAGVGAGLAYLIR
T6 sequence (Q9Y2T6 whole entry): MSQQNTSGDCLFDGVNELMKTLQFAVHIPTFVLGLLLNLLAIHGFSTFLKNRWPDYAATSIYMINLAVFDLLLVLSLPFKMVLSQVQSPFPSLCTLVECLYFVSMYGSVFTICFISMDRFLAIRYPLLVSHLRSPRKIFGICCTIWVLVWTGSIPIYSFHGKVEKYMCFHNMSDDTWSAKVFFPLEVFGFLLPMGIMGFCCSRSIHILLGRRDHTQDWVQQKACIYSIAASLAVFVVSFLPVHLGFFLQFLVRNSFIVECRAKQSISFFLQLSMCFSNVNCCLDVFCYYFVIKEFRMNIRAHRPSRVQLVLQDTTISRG
T7 sequence (P21554 whole entry): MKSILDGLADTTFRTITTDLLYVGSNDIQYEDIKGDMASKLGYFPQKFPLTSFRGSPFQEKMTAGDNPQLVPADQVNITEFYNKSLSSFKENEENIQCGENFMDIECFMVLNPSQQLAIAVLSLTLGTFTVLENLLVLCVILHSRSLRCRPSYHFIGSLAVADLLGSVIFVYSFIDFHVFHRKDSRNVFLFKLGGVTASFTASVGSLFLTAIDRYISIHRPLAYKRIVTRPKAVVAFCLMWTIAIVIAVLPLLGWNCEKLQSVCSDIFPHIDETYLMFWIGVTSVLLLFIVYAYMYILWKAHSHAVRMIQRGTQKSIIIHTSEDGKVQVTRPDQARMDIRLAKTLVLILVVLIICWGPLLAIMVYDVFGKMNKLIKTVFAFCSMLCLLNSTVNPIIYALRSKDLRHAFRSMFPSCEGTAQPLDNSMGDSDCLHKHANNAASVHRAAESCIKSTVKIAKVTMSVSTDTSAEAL
Chain of Bcl-2-like protein 1 (Q07817 whole entry): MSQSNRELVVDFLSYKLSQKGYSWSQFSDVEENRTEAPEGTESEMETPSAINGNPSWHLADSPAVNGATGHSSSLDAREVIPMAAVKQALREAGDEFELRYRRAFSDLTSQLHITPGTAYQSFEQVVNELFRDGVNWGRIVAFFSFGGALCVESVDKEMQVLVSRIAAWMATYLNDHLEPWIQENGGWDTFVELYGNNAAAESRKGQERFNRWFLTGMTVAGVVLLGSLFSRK
Chain of Intestinal-type alkaline phosphatase (Mus musculus, UniProt P24822) (P24822 whole entry): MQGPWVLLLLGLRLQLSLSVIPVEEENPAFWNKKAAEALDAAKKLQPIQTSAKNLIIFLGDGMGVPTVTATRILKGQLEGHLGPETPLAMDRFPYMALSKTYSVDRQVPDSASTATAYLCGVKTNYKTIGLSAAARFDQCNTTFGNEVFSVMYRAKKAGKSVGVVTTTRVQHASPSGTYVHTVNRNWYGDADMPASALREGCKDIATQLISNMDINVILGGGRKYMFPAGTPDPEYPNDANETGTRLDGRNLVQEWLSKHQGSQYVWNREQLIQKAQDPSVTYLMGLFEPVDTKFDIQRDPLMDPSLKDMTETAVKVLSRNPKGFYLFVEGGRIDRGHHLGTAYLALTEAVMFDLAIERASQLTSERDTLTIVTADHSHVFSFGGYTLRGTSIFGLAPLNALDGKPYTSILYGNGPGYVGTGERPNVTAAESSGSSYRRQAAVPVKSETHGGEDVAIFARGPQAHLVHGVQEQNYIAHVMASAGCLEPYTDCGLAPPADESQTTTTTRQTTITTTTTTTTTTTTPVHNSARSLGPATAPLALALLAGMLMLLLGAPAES
Chain of Intestinal-type alkaline phosphatase (Homo sapiens, UniProt P09923) (P09923 whole entry): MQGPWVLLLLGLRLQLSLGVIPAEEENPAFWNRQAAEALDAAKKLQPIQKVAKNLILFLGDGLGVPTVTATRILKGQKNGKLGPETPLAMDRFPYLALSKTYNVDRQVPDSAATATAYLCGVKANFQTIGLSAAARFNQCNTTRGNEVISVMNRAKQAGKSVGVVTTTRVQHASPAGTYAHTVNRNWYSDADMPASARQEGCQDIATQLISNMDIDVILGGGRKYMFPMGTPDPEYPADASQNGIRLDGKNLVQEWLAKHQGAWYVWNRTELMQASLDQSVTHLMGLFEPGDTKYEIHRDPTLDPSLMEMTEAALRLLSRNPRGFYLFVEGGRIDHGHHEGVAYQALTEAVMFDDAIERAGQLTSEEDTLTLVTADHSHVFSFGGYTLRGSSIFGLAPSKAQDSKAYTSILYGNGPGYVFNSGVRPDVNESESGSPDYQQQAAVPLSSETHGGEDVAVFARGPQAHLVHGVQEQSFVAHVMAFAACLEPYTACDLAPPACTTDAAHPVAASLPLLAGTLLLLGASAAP
Chain of Tumor necrosis factor (P01375 whole entry, the tested form may be a part): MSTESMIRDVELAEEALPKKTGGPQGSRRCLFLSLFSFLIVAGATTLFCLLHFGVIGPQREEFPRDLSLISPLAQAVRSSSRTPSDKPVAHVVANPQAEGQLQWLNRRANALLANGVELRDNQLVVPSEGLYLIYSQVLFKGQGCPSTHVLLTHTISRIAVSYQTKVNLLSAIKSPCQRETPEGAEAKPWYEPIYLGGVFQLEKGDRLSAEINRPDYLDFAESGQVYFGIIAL

CC(C)n1c(SCCCc2ccccc2)nc2c1c(=O)[nH]c(=O)n2C
IC50 [1]: > 25 µM (inactive) | IC50 [2]: > 20 µM (inactive) | IC50 [3]: 17.6 µM (active) | IC50 [4]: > 25 µM (inactive) | IC50 [5]: > 20 µM (inactive) | IC50 [6]: > 20 µM (inactive) | IC50 [7]: > 20 µM (inactive) | IC50 [8]: > 20 µM (inactive) | IC50 [9]: 12.3 µM (active) | IC50 [10]: > 25 µM (inactive)

CC1=CC(C)(C)N2C(=O)C3(SCC(=O)N3c3ccc(O)cc3)c3cc(C)cc1c32 (stereo not given)
IC50 [11]: > 32 µM (inactive) | EC50 [12]: > 32 µM (inactive) | IC50 [13]: 2.72 µM (active) | IC50 [14]: > 32 µM (inactive) | IC50 [15]: > 32 µM (inactive) | IC50 [16]: 4.1 µM (active) | EC50 [17]: > 32 µM (inactive) | EC50 [18]: > 32 µM (inactive)

CC1(C)Cc2c(sc(NC(=O)C(=O)NCC3CCCO3)c2C(N)=O)CO1 (stereo not given)
IC50 [19]: 4.28 µM (active) | IC50 [20]: 2.18 µM (active) | IC50 [21]: > 20 µM (inactive)

O=[N+]([O-])c1cc(S(=O)(=O)c2ccc(O)c([N+](=O)[O-])c2)ccc1O
IC50 [22]: 12.5 µM (not active) | IC50 [23]: > 109 µM (not active) | IC50 [24]: 2.82 µM (active) | IC50 [25]: > 100 µM (inactive) | IC50 [26]: 5.39 µM (active) | EC50 [27]: > 350 µM (not active) | IC50 [28]: 3.31 µM (active) | EC50 [29]: > 100 µM (inactive) | EC50 [30]: > 350 µM (not active)

Source: ChEMBL document CHEMBL1201862, “PubChem BioAssay data set” (2004)
